Like-named read-outs stand apart in the source and are kept apart here. Values belong to the molecule of their own block, whether it stands above or below them.
Assays:
hCC L68Q variant = target: T1, hCC L68Q variant (Homo sapiens, UniProt P01034, L94Q); assay: Incubation of supernatants and cellular extracts of hCC-expressing HEK-293T cells with reducing agents, non-reducing SDS-PAGE/Western blot for cystatin C; type: biochemical; conditions: for concentration at which equivalent loss of high molecular signal was observed: supernatants or cell extracts treated in vitro (FIG. 6); for ability to disrupt high molecular weight complexes of L68Q Cyst-C: supernatants or cell extracts treated in vitro, 1 h at 37 C (FIG. 6); for oligomerization of hCC WT and L68Q variant in presence of reducing agent: DTT 50 mM or β-mercaptoethanol 5% in sample buffer, lysates and supernatants; for inhibition at 3000 µM / HMW of secreted hCC L68Q (quantitation): 3 mM; for HMW of secreted hCC L68Q (quantitation) / oligomerization/dimerization levels of secreted hCC L68Q variant in vitro: supernatants, 37° C. for 60 min; for high molecular weight complexes of L68Q Cyst-C: supernatants and cell extracts, 1 h at 37° C. (FIG. 5)
T1 construct: Dashed line represents the N-terminal signal peptide subject to proteolysis; expressed in transfected cells
T1 sequence (P01034 27-146 L94Q): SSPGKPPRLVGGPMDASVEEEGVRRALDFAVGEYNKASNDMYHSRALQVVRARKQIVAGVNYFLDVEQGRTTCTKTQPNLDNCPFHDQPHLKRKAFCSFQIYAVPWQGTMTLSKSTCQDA
Protocol: A plasmid containing a cDNA of CST3 was obtained from Dharmacon (Lafayette, Colo.). The full length coding sequence was amplified with a c-terminal Myc tag by PCR using the forward primer […] All sequences were confirmed by Sanger sequencing. […] After transfection cells were incubated with fresh medium containing puromycin (1 μg/ml) for 3 weeks. After selection, stable clones of each transfectant were generated by limiting dilution.
After clearing the cell lysates by centrifugation (10 minutes, 21,000×g, 4° C.), the supernatants were collected and used for Western blotting. Sample buffer containing SDS, glycerol, Tris-HCl pH 6.8, and bromophenol blue was added to each sample to the following final concentrations: 2% SDS, 10% glycerol, 50 mM Tris-HCl, 0.02% bromophenol blue. In samples that were reduced, either DTT (50 mM final concentration) or β-mercaptoethanol (5% final concentration) were added. […] Proteins were transferred to PVDF membranes (Millipore, Billerica, Mass.) and blotted with anti-hCystatin C, and developed by enhanced chemiluminescence (ECL; Thermo Fisher Scientific). ECL films were scanned, and densities of bands were determined using the gel analysis features of Fiji.^59
(§1) The means and standard deviations of data were calculated. One-sided T-test tests were used to determine the level of significance with respect to the untreated samples, with p<0.05 being considered statistically significant.

secreted hCC L68Q = target: T2, secreted hCC L68Q (Homo sapiens, UniProt P01034, L94Q); assay: Treatment of live HEK-293T cells expressing hCC WT or L68Q with compounds, Western blot of supernatants or lysates; type: cell-based; conditions: for presence of HMW and LMW of secreted hCC L68Q / reduction of HMW and LMW of secreted hCC L68Q: 10 mM; for presence of HMW and LMW of secreted hCC L68Q: 24 h and 48 h time points; for reduction of HMW and LMW of secreted hCC L68Q: 72 h; for effect on oligomerization of secreted hCC L68Q: lower doses (below 10 mM)
T2 construct: Dashed line represents the N-terminal signal peptide subject to proteolysis; expressed in transfected cells
T2 sequence (P01034 27-146 L94Q): T1 sequence (P01034 27-146 L94Q)
Protocol: HEK-293T cells expressing hCC WT or the L68Q variant were washed twice with ice-cold phosphate-buffered saline (PBS) and lysed on ice using a freshly prepared ice-cold cell lysis buffer containing 50 mM Tris-HCl, pH 7.4, 100 mM NaCl, 50 mM β-glycerophosphate, 10% glycerol (w/v), 1% NP-40 (w/v), 1 mM EDTA, 2 mM NaVO4, and a complete, EDTA-free, protein inhibitor cocktail (Roche Applied Science, Mannheim Germany) at 20 μl per mL of lysis buffer. After clearing the cell lysates by centrifugation (10 minutes, 21,000×g, 4° C.), the supernatants were collected and used for Western blotting. Sample buffer containing SDS, glycerol, Tris-HCl pH 6.8, and bromophenol blue was added to each sample to the following final concentrations: 2% SDS, 10% glycerol, 50 mM Tris-HCl, 0.02% bromophenol blue. In samples that were reduced, either DTT (50 mM final concentration) or β-mercaptoethanol (5% final concentration) were added. Equal volumes of lysate or supernatant samples were loaded on NuPAGE 4-12% Bis-Tris gels (Thermo Fisher Scientific, Waltham Mass.) without heating/boiling. Proteins were transferred to PVDF membranes (Millipore, Billerica, Mass.) and blotted with anti-hCystatin C, and developed by enhanced chemiluminescence (ECL; Thermo Fisher Scientific). ECL films were scanned, and densities of bands were determined using the gel analysis features of Fiji.^59
(§2) HEK-239T cells were plated on 6-well plates and cultured for 2 days, at which point reduced glutathione (GSH) (Sigma, St. Louis, Mo.) or N-acetylcystein (NAC) (Sigma) were added to the indicated concentrations. Cells were incubated with compounds for 72 hours, and 100 μl samples of supernatants were removed at 24, 48, and 72 hours. Supernatants were cleared by centrifugation (10 minutes, 21,000×g, 4° C.). Sample buffer containing SDS, glycerol, Tris-HCl pH 6.8, and bromophenol blue was added to each sample to the following final concentrations: 2% SDS, 10% glycerol, 50 mM Tris-HCl, 0.02% bromophenol blue. When indicated, cells were washed with PBS and lysed and cystatin C levels were determined by means of Western blot analysis.
as §1

HEK-293T cells = assay: Viability and proliferation of hCC-expressing HEK-293T cells in the presence of reducing agents; type: cell-based, human
Protocol: as §2

[1] = target: T3, amyloid-cystatin protein complex aggregates in the skin (Homo sapiens, UniProt P01034, L94Q); assay: Cystatin C immunostaining of skin biopsies from HCCAA patients (hCC L68Q carriers) on NAC therapy; type: in vivo
T3 construct: from tissue; host or cells: human skin biopsies from HCCAA patients
T3 sequence (P01034 27-146 L94Q): T1 sequence (P01034 27-146 L94Q)
From the text: Three 4 mm skin biopsies from the back were taken from each of the three studied individuals. The skin biopsies were formalin-fixed and paraffin-embedded. They were cut into 3 μm sections for immunohistochemistry and immunostained with rabbit polyclonal cystatin C antibody (Sigma, HPA013143) using the EnVision Detection System as previously described.^22 hCC immunoreactivity in the carriers skin biopsies was quantified by semi-automated image analysis using the ImageJ software as previously described.^22 Bright-field images of each section from the carriers were captured using a ×20/0.3 NA objective. RGB color images of the sections were imported to ImageJ. On each image, a rectangular 2000×2000 pixels region of interest (ROI) was defined. Subsequent processing yielding the % area coverage of hCC immunoreactivity within each ROI was performed as previously described^22. […] The second biopsy was taken immediately prior to the family-wide initiation of NAC treatment (600 mg of NAC 3× per day for 6 months). The third biopsy was taken following 6 months of 600 mg 3× per day of NAC therapy.
The proband received 400 mg NAC 4× per day for 9 months followed by 600 mg 3× per day for 6 months. The parent received only the 600 mg 3× per day for 6 months course. The proband never missed a dose; the parent did miss the middle dose 2-3 times per week.

[2] = human, in vivo
Cyst-C L68Q = target: T4, Cyst-C L68Q (Homo sapiens, UniProt P01034, L94Q); assay: Incubation of plasma or brain extracts of Cyst-C L68Q transgenic mice with NAC, non-reducing Western blot; type: biochemical; conditions: 1 h at 37° C.
T4 construct: from tissue; host or cells: plasma and brain extracts of Cyst-C L68Q transgenic mice (from Levy, New York University)
T4 sequence (P01034 27-146 L94Q): T1 sequence (P01034 27-146 L94Q)
Protocol: FIG. 7. High molecular weight complexes of Cyst-C L68Q can be detected in transgenic mice. Short incubation of NAC impairs oligomerization of Cyst-C L68Q on blood and brain extracts. Plasma or brain extracts were incubated in presence of NAC during 1 h at 37° C. with indicated concentrations. Samples were mixed with 2% SDS without reducing agents prior to electrophoresis, and proteins levels were detected by biotinylated anti-cystatin C antibody followed by streptavidin-HRP.
Additional results have been generated from transgenic mice that were obtained from our collaborator Eufrat Levy at New York University. These mice have been transformed with a human genomic DNA which contains the coding sequence of Cyst-C, […] non-coding portions of the gene which may impact expression levels. […] Western blots from the mouse tissue extracts are not as clean as blots from the cell system, as the antibody we use to detect was raised in a mouse. […] Although there are several non-specific high molecular weight bands observed in the non-transgenic samples, a clear high molecular weight “smear” is seen in the transgenic animals, consistent with what we observe in supernatant from the cell culture system.

Molecule: CC(=O)N[C@@H](CS)C(=O)O [NAC, N-acetyl cysteine]
- reduction in staining of skin biopsy ([1]; parent), 600 mg 3× per day for 6 months, middle dose missed 2-3 times per week): 50%
- progression of amyloid-cystatin stain intensity between skin biopsy #1 and #2 ([1]; proband, on NAC for about 9 months, stopped a few months prior to second biopsy): had not progressed in any significant way
- reduction in staining of skin biopsy ([1]; sibling, lower doses of NAC): less obvious
- HMW of secreted hCC L68Q (quantitation) (hCC L68Q variant): almost complete ablation
- oligomerization/dimerization levels of secreted hCC L68Q variant in vitro (hCC L68Q variant; 3 or 10 mM): severely reduces
- high molecular weight complexes of L68Q Cyst-C (hCC L68Q variant): significant reduction
- concentration at which equivalent loss of high molecular signal was observed (hCC L68Q variant): 10 mM
- presence of HMW and LMW of secreted hCC L68Q (secreted hCC L68Q): completely abolished
- reduction of HMW and LMW of secreted hCC L68Q (secreted hCC L68Q): appreciable but incomplete reduction
- dimerization status of the intracellular levels of L68Q hCC (secreted hCC L68Q; extracellular treatment of cells (data not shown)): does not appear to impact
- effect on oligomerization of secreted hCC L68Q (secreted hCC L68Q; 24 h and 48 h): only incompletely effective
- effect on oligomerization of secreted hCC L68Q (secreted hCC L68Q; after 72 h): no significant effect
- tolerability of oral therapy [2]: well tolerated and without adverse events
- Cyst-C monomer (Cyst-C L68Q): causes the appearance of monomer
- high molecular weight smear of transgenic human Cyst-C (Cyst-C L68Q): reduces this smear

Molecule: COC(=O)[C@H](CS)NC(C)=O [NAC-methyl ester, N-acetylcysteine methyl ester]
- concentration at which equivalent loss of high molecular signal was observed (hCC L68Q variant): 1 mM
- ability to disrupt high molecular weight complexes of L68Q Cyst-C (hCC L68Q variant): retain the ability to disrupt

Molecule: GSSH
- high molecular weight complexes of L68Q Cyst-C (hCC L68Q variant): does not affect

The next lines start with results.

- concentration at which equivalent loss of high molecular signal was observed (hCC L68Q variant): 1 mM
- ability to disrupt high molecular weight complexes of L68Q Cyst-C (hCC L68Q variant): retain the ability to disrupt
Molecule: CC(=O)N[C@@H](CS)C(N)=O

- oligomerization of hCC WT and L68Q variant in presence of reducing agent (hCC L68Q variant): completely abolished
Molecule: O[C@@H](CS)[C@@H](O)CS [DTT]

- inhibition at 3000 µM (hCC L68Q variant; cellular extract, 37° C., read-out: inhibition of the HMW on the intracellular fraction of the L68Q hCC variant (densitometry)): ~50%
- inhibition at 3000 µM (hCC L68Q variant; supernatant, 37° C., read-out: inhibition of the HMW in the secreted fraction of the L68Q hCC variant (densitometry)): ~90%
- HMW of secreted hCC L68Q (quantitation) (hCC L68Q variant): almost complete ablation
- amount of dimer and/or HMW oligomer in secreted and intracellular fraction of hCC WT or L68Q variant (hCC L68Q variant; 3 or 10 mM, 37° C.): severely reduced
- oligomerization/dimerization levels of secreted hCC L68Q variant in vitro (hCC L68Q variant; 3 or 10 mM): severely reduces
- high molecular weight complexes of L68Q Cyst-C (hCC L68Q variant): significant reduction
- presence of HMW and LMW of secreted hCC L68Q (secreted hCC L68Q): completely abolished
- reduction of HMW and LMW of secreted hCC L68Q (secreted hCC L68Q): appreciable but incomplete reduction
- effect on oligomerization of secreted hCC L68Q (secreted hCC L68Q; 24 h and 48 h): only incompletely effective
- effect on oligomerization of secreted hCC L68Q (secreted hCC L68Q; after 72 h): no significant effect
Molecule: N[C@@H](CCC(=O)N[C@@H](CS)C(=O)NCC(=O)O)C(=O)O [GSH, glutathione]
- cell viability for the duration of the experiment (HEK-293T cells; all concentrations (up to 10 mM), 72 hours): viable
- proliferation of the cells (HEK-293T cells; highest 10 mM concentration (data not shown)): slightly impacted

- high molecular weight complexes of L68Q Cyst-C (hCC L68Q variant): does not affect
Molecule: CC(=O)N[C@@H](CO)C(=O)O [NAS, n-acetyl-serine]

- oligomerization of hCC WT and L68Q variant in presence of reducing agent (hCC L68Q variant): completely abolished
Molecule: OCCS [b-mercaptoethanol]

Source: US11338009B2 (The Children's Hospital of Philadelphia, priority 2017, dated 2022)
